Test results reported in patent EP0692191A1, “UTILIZATION OF PHENYL COMPOUNDS FOR THE CONTROL OF PHYTOPARASITE NEMATODES” (UNIVERSIDAD DE LA LAGUNA, priority 1993, dated 1995).
Several values for one entry are separate records, joined by “and”; a condition that tells them apart may be missing. Identical values can stand only once. Like-named read-outs stand apart in the source and are kept apart here. Marks after values point to notes of the source that are not given here.

Assays:
Mäusen = conditions: mouse, in vivo; cited from earlier work
Ratte = conditions: rat, cited from earlier work
[1] = test system: Globodera rostochinesis und Globodera pallida; experiment: Nematicidal effect: lethal concentrations on second-stage juveniles, 24 h (Example 1); conditions: for LC50: read-out: CL50; for EC100: read-out: CL100
[2] = Acute toxicity in male Albino-Swiss mouse, intraperitoneal (Example 3); type: in vivo, Albino-Swiss Maus; conditions: mouse, in vivo, ip, male Albino-Swiss mouse, intraperitoneal, 24 h, estimated from regression curve; read-out: DL50
Description: (§1) Man studierte die Toxizität bei einer männlichen ,Albino-Swiss" Maus mittels der intraperitonealen (i.p.) Anwendung variabler Dosen von trans-1,3-Diphenyl-2-propen-1-on bei 10 […] zur Behandlung. Man wertete die Nummer der toten Tiere nach 24 Stunden der Anwendung und berechnete die Gleichung der Regressionskurve, die die Resultate des Experimentes besser beschreibt. Ausgehend von den Regressionsgleichungen schätzte man dieDL50 und DL0 (Dosen des trans-1,3-Diphenyl-2-propen-1-on ohne offensichtlichen Effekt) bei 24 Stunden. Ebenso schätzte man das Potential der Toxizität (pT) (Luckey und Venugopal, 1977. J. Toxicol. & Envirn. Health. 2:633.)
(§2) Das DL50 schätzte man bei 1494 mg/Kg bei 24 Stunden (Figur 4). Ausgehend von diesen Daten deduzierte man das das trans-1,3-Diphenyl-2-propen-1-on eine leicht toxische Substanz ist mit DL50 schwankend zwischen 0,5 und 5 g/kg (Loomis, 1982. Ed acribia. Zaragoza, 33-43). Der letale Effekt null für trans-1,3-Diphenyl-2-propen-1-on bei 24 Stunden war DL0=653,85 mg/kg.
(§3) Das toxische Potential schätzte man auf pT50=2,14.

Albino-Swiss Maus = experiment: as above; type: in vivo
Description: as §1, §2, §3

Meloidogyne javanica = experiment: Field effect in a banana plantation greenhouse infested with nematodes (1.2); type: in vivo; conditions: 0,05 mmol solution, 3000 l with irrigation water; soil samples three days later
Description: Man bereitete 3000 Liter einer Lösung von trans-1,3-Diphenyl-2-propen-1-on 0,05 mmol und verwendete diese am Boden mit dem Wasser der Bewässerung in einem Gewächshaus der Bananenanpflanzung, das von dem phytoparasitischen Nematoden Meloidogyne javanica befallen war. Drei Tage später nahm man Proben des Bodens der behandelten Parzelle und stellte fest, das in den Extraktionen von Nematoden mittels der Methode der Zentrifugation auf Zucker (Extraktion von sowohl lebenden und toten Nematoden) lediglich 25% lebende Larven der M. javanica zu finden waren, sodaß die Behandlung mit trans-1,3-Diphenyl-2-propen-1-on eine Näherungsweiseeffektivität von 75% hatte.

M. javanica = experiment: Infestation index of tomato roots (1.3); type: in vivo; conditions: index 0 to 5; tomato plants in soil treated as in experiment 1.2; untreated soil ima=4,33
Description: Man pflanzte Tomatenpflanzen in einer kommerziell erhältlichen Auswahl, anfällig für M. javanica, um die Pflanzen der Bananenpflanzung, die mit trans-1,3-Diphenyl-2-propen-1-on des Experimentes 1.2 behandelt wurde, wie auch um solche, die nicht behandelt wurden. Der Index des Befalles der Wurzeln der Tomate gab uns eine näherungsweise Vorstellung des Niveaus der Infektion mit Nematoden der Wurzelknoten im Feld (Bridge & Page, 1980. Tropical Pest Management, 26:296-298). Zur Klassifikation der angegriffe der Nematoden auf die Wurzeln der Tomate etablierte man einen Index des Befalles von 0 bis 5. Die Pflanzen, die in dem mit trans-1,3-Diphenyl-2-propen-1-on behandeltem Boden wuchsen, erhielten einen mittleren Befallindex (ima) der deutlich kleiner war (ima=3) als derjenige der Pflanzen, die im Boden ohne Behandlung (ima=4,33) wuchsen.

[3] = test system: Globodera rostochienensis und Globodera pallida; experiment: Nematostatic effect: inhibition of hatching from cysts (Example 2); type: in vivo; conditions: for activity at 10 µM: im, 360 h, 0,01 mmol, read-out: Bildung von Einschlußkörpern im Verhältnis zur Bekämpfung
Description: Man realisierte ein Experiment, um den Effekt von trans-1,3-Diphenyl-2-propen-1-on bei der Bildung von Einschlußkörpern der Globodera spp. zu sehen. Man setzte 10 Zysten einer gemischten Population der Spezie Globodera rostochienensis und Globodera pallida in Violen mit 2cc einer Lösung, die 10 mmol ZnSO4 als Induktionsmittel der Bildung von Einschlußkörpern enthielt, und eine variable Konzentration von trans-1,3-Diphenyl-2-propen-1-on (0,05, 0,04, 0,03, 0,01 und 0,005 mmol). Die in den vier Replikatoren und in den Bekämpfungen entwickelten Jungen zählte man periodisch während 15 Tagen. Auf der Basis der Regressionskurve, die die Resultate des Experimentes besser beschreibt, schätzte man, was die Anwesenheit von nur 0,007 mmol von trans-1,3-Diphenyl-2-propen-1-on während 15 Tagen ausreichend war, um die Bildung von Einschlußkörpern auf die Hälfte derjenigen der Bekämpfung zu reduzieren.
Nachfolgend und mit dem Ziel zu sehen, ob die Hinderung der Bildung von Einschlußkörpern irreversibel sei, entfernt man die Zysten, wäscht man mit destilliertem Wasser und setzt sie in neue Violen mit 2cc einer Lösung, die lediglich das Induktionsmittel der Bildung von Einschlußkörpern (10 mmol ZnSO4) enthielt. Man fand heraus, das der Bildung von Einschlußkörpern hindernde Effekt des trans-1,3-Diphenyl-2-propen-1-on bei einer Dosis über 0,03 mmol unumkehrbar ist. Die bei der Dosis von 0,01 mmol auftretende Bildung von Einschlußkörpern war deutlich geringer als die der Bekämpfung (37,28%) in den ersten 15 Tagen und praktisch null ( es entwickelten sich lediglich 4,6% im Verhältnis zur Bekämpfung) nach der Herausnahme des trans-1,3-Diphenyl-2-propen-1-on bei 15 Tagen seit Beginn des Experimentes (Figur 3).

[4] = Brine shrimp assay (Example 4); conditions: in vivo, Artemia salina, read-out: CL50
Description: Die Analyse der Toxizität einer Substanz auf eine Salzgarnele Artemia salina (Brine shrimp) vermitteln eine angenäherte Vorstellung der biologischen Aktivität eines Produktes und insbesondere seiner Zytotoxizität.
Das Experiment wurde durchgeführt nach der Methode, die durch Mayer et al., 1982, beschrieben wurde ( Planta Med. 45:31-34), wobei das CL50 bei 24 Stunden für die Garnelen berechnet wird. Man benutzte vier Replikatoren, jeweils mit einer der Konzentrationen von trans-1,3-Diphenyl-2-propen-1-on (0,1, 0,01, 0,001 und 0,0001 mmol) und adäquate Bekämpfungen. Das geschätzte CL50 lag bei 0,0247 mmol, Dosen, die annäherungsweise mit denjenigen übereinstimmen, die für die Larven des zweiten Stadiums der Nematoden der Zyste berechnet wurden (CL50=0,033).

[5] = test system: Vinca major, Adiantum capillus-veneris, Begonia rex, Hedera helix; experiment: Phytotoxicity: development of laboratory plants (5.2); type: in vivo; conditions: 0,05 mmol with irrigation at field capacity, 50 days, 25°C, 80% relative humidity
Protocol: Die Phytotoxizität der trans-1,3-Diphenyl-2-propen-1-on studierte man im Laboratorium unter Benutzung von Vinca major Pflanzen (8 Pflanzen), Adiantum capillus-veneris (2 Pflanzen), Begonia rex (2 Pflanzen) und Hedera helix (2 Pflanzen), die man an Ort und Stelle zog und in einer Kammer bei 25°C, 80% relativer Luftfeuchtigkeit und 13 Stunden Licht pro Tag kultivierte. Die Hälfte der Pflanzen behandelte man mit einer Dosis von trans-1,3-Diphenyl-2-propen-1-on von 0,05 mmol, das man auf eine Bewässerung mit Feldkapazität anwendete.

[6] = test system: Musa spp. cv Cavendish ,,Gran enano"; experiment: Phytotoxicity: banana plants (5.2); type: in vivo
Description: Man studierte gleitherweise die Phytotoxizität von trans-1,3-Diphenyl-2-[…] auf Pflanzen der Bananenpflanzung (Musa spp. cv Cavendish ,Gran enano"). Bananenpflanzungen, die drei Monate alt waren und aus einer Kultivierung in vitro stammten, pflanzte man in Holzkübel von 5 l Kapazität mit einem Substrat von 1:1:1 (Torf:Sand:Kies) und ordnete diese zufällig in einem Gewächshaus an. Für dieses Experiment ordnete man 10 Replikatoren zur Behandlung und 5 zur Bekämpfung an. […]

[7] = tomato, in vivo
[8] = test system: Kresse (Nasturtium officinale); experiment: Phytotoxicity: germination and elongation of cress seeds (5.1); conditions: for activity at 50 µM / activity at 500 µM: Nasturtium officinale, 168 h
[9] = test system: Tomate (Lycopersicum esculentum var. marglobe); experiment: Phytotoxicity: germination and elongation of tomato seeds (5.1); conditions: tomato, 0,05 and 0,5 mmol, statement in words
[10] = read-out: TE: Rate der Verlängerung

In the case of `CNC(=O)O/N=C/C(C)(C)SC` [Aldicarb], the DL50 (Mäusen) is listed as 0,3 mg/Kg.

In the case of `CNC(=O)Oc1cccc2c1OC(C)(C)C2` [Carbofurano], the DL50 (Mäusen) is given as 2 mg/kg.

In the case of `CN1CSC(=S)N(C)C1` [Dazomet], the DL50 (Mäusen) is listed as 180 mg/kg.

In the case of `CCOP(=O)(NC(C)C)Oc1ccc(SC)c(C)c1` (centres unmarked) [Fenamifos], the DL50 (Mäusen) is listed as 22,7 mg/Kg.

In the case of `CNC(=O)ON=C(SC)C(=O)N(C)C` [Oxamilo], the DL50 (Mäusen) is given as 2,3 mg/Kg.

In the case of `CC(=O)C#Cc1ccccc1` [Verbindung 1, 4-Phenyl-3-butin-2-on], the “toxischer Effekt” value (Ratte; 56 mg/kg intravenous) is given as “keinen toxischen Effekt”, the LC50 [1] is given as 3.7 µM and 0.53 µg/mL and the EC100 [1] is given as < 50 µM and < 7.21 µg/mL.

For `C=CSc1ccccc1` [Verbindung 2, Phenylvinylsulfid], the LC50 [1] was 21 µM and 2.86 µg/mL.

In the case of `O=C/C=C/c1ccccc1` [Verbindung 3, trans-Zimtaldehyd], the LC50 [1] is reported as 24 µM and 3.17 µg/mL and the EC100 [1] is reported as < 1000 µM and < 132 µg/mL.

With `C=C[S+]([O-])c1ccccc1` (centres unmarked) [Verbindung 4, Phenylvinylsulfoxid] the LC50 [1] was 111 µM and 16.9 µg/mL and the EC100 [1] was < 1000 µM and < 152 µg/mL.

For `CC(=O)/C=C/c1ccccc1` [Verbindung 5, trans-4-Phenyl-3-buten-2-on], the LD50 (Ratte; intraperitoneal) is given as 1210 mg/kg, the LD50 (Ratte; intravenous) is given as 112 mg/kg and the LC50 [1] is given as 168 µM and 24.6 µg/mL. The EC100 [1] was < 1000 µM and < 146 µg/mL.

For `O=C1CCC(c2ccccc2)O1` (centres unmarked) [Verbindung 6, γ-Phenyl-γ-butirolacton], the LC50 [1] was 282 µM and 45.7 µg/mL and the EC100 [1] was < 1000 µM and < 162 µg/mL.

With `O=C(Cc1ccccc1)Cc1ccccc1` [Verbindung 7, 1,3-Diphenylaceton] the LC50 [1] was 961 µM and 202 µg/mL.

With `O=C(/C=C/c1ccccc1)c1ccccc1` [Verbindung 8, trans-1,3-diphenyl-2-propen-1-on] the LD50 at 24 h [2] was 1490 mg/kg, the “toxisches Potential pT50” value (Albino-Swiss Maus; estimated from the mouse i.p. data (Luckey and Venugopal)) was 2,14 and the “DL0 (letaler Effekt null)” value (Albino-Swiss Maus; male Albino-Swiss mouse, intraperitoneal, 24 h) was 653,85 mg/kg. The DL50 (Albino-Swiss Maus; male Albino-Swiss mouse, intraperitoneal, 24 h, estimated from regression curve, 1440 min) was 1492*** mg/Kg, the Näherungsweiseeffektivität (Meloidogyne javanica) was roughly 75% and the “lebende Larven der M. javanica” value (Meloidogyne javanica) was 25%. The “mittlerer Befallindex (ima)” value (M. javanica) was 3, the IC50 ([3]; Globodera pallida, 360 h, 15 days exposure, 10 mmol ZnSO4 as hatching inducer, hatching reduced to half of control, read-out: Bildung von Einschlußkörpern hemmende Dosis 50 (DIE50)) was 7 µM and the activity at 10 µM ([3]; Globodera pallida, after removal of the compound at day 15) was 4.6%. The activity at 10 µM ([3]; Globodera pallida, first 15 days) was 37.3%, the “Bildung von Einschlußkörpern” value ([3]; concentrations of 0,03 mmol and more, 15 days) was “hörte die Bildung von Einschlußkörpern völlig auf” and the “Reversibility of the hatching-inhibiting effect” value ([3]; dose above 0,03 mmol, cysts washed and placed in 10 mmol ZnSO4 only) was “unumkehrbar”. For the same compound, the LC50 at 24 h [4] was 24.7 µM, the “Wachstum und allgemeiner Aspekt der Pflanzen” value [5] was “keine Unterschiede im Wachstum oder im allgemeinen Aspekt” and the “Effekt auf Pflanzen der Bananenpflanzung” value ([6]; 0,05 and 0,5 mmol with irrigation water, after 3 months, greenhouse pots) was “keinen Effekt”. The “Effekt auf Pflanzen der Bananenpflanzung” value ([6]; after 6 months, treated banana plants in the greenhouse of Example 1.2) was “Ebensowenig stellt man einen Effekt”, the activity at 168 h, 50 µM ([7]; TE: Rate der Verlängerung) was 105% and the activity at 168 h, 500 µM ([7]; TE: Rate der Verlängerung) was 89.2%. For the same compound, the activity at 168 h, 50 µM ([7]; TG: Rate der Keimung) was 103%, the activity at 168 h, 500 µM ([7]; TG: Rate der Keimung) was 100% and the activity at 50 µM [8, 10] was 97.9%. For the same compound, the activity at 500 µM [8, 10] was 18.4%, the activity at 50 µM ([8]; read-out: TG: Rate der Keimung) was 78.4% and the activity at 500 µM ([8]; read-out: TG: Rate der Keimung) was 86.5%. The “TE: Rate der Verlängerung” value ([8]; cress primary root, 0,5 mmol, 7 days, 25°C, percent of control) was “deutliche Verminderung der primären Wurzel”, the “TG: Rate der Keimung” value ([8]; cress, 0,5 mmol, 7 days, 25°C, percent of control) was “leichte Verminderung der Keimung” and the “Rate der Keimung” value [9] was “variierte bei der Tomate nicht”. The Verlängerungsrate [9] was “variierte bei der Tomate nicht signifikant”, the LC50 [1] was 33 µM and 6.86 µg/mL and the EC100 [1] was < 50 µM and < 10.4 µg/mL.
